The text below walks through data of PubChem BioAssay AID1918930 (Molecular Pharmacology Branch, DTP, NCI, 2023).

Values joined by “and” are separate entries in the source; they are usually repeats but may differ in a detail not shown here. Equal values may be shown once.

The assay has as its system 233499-124-R-J3-PDC complex spheroid viability, % test/control. Put plainly: Anticancer human tumor 233499-124-R-J3-PDC patient-derived colon adenocarcinoma cell line growth inhibition. The following applies: for viability, T/C: stronger effect = lower value. In a few lines: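 Multicellular complex spheroids of tumor cells with human endothelial cells (HUVEC) and mesenchymal stem cells; the LSD1 inhibitor iadademstat was combined with standard-of-care or investigational agents. Top concentration at or near clinical Cmax, half-log dilutions; final DMSO ≤0.25%.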

Setting [1] is: curve of first compound, second compound 0.1 µM.
Where [2] appears, read: curve of first compound, second compound 0.316 µM.
Where [3] appears, read: curve of first compound, second compound 1 µM.
Setting [4] is: curve of first compound, second compound 3.16 µM.
Where [5] appears, read: curve of first compound, second compound 10 µM.
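Further: spheroids exposed to agents for one week before readout.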

What is called IC50 is the concentration needed to halve the response being measured. What is called viability, T/C is the result in the treated group divided by that in the control group, in per cent. As for `Nc1ccn(C2OC(CO)C(O)C2(F)F)c(=O)n1` (stereo not given) + NC1CC1c1ccc(-c2cccc(O)c2)cc1, the IC50 reads like this: under setting [1], 0.0873 µM; under setting [2], 0.0734 µM; under setting [3], 0.0328 µM; under setting [4], 0.0558 µM; under setting [5], 0.0348 µM. For the same molecule, the viability, T/C is 111% (second compound 0.1 µM, first compound 0.000949 µM); 97.9% (second compound 0.1 µM, first compound 0.003 µM); 104% (second compound 0.1 µM, first compound 0.00949 µM); 72.4% (second compound 0.1 µM, first compound 0.03 µM); 49.4% (second compound 0.1 µM, first compound 0.0949 µM); 45.2% (second compound 0.1 µM, first compound 0.3 µM). In addition, the viability, T/C is 85.1% (second compound 0.316 µM, first compound 0.000949 µM); 96.1% (second compound 0.316 µM, first compound 0.003 µM); 75.3% (second compound 0.316 µM, first compound 0.00949 µM); 69.9% (second compound 0.316 µM, first compound 0.03 µM); 41% (second compound 0.316 µM, first compound 0.0949 µM); 41.7% (second compound 0.316 µM, first compound 0.3 µM). Also, the viability, T/C was 96.1% (second compound 1 µM, first compound 0.000949 µM); 84.7% (second compound 1 µM, first compound 0.003 µM); 78.1% (second compound 1 µM, first compound 0.00949 µM); 49.2% (second compound 1 µM, first compound 0.03 µM); 41.2% (second compound 1 µM, first compound 0.0949 µM); 38.7% (second compound 1 µM, first compound 0.3 µM). Also, the viability, T/C is 92.3% (second compound 3.16 µM, first compound 0.000949 µM); 95.6% (second compound 3.16 µM, first compound 0.003 µM); 72.7% (second compound 3.16 µM, first compound 0.00949 µM); 60.1% (second compound 3.16 µM, first compound 0.03 µM); 39.1% (second compound 3.16 µM, first compound 0.0949 µM); 46.2% (second compound 3.16 µM, first compound 0.3 µM). The viability, T/C by setting is: (second compound 10 µM, first compound 0.000949 µM) 83.5%; (second compound 10 µM, first compound 0.003 µM) 69.4%; (second compound 10 µM, first compound 0.00949 µM) 74.8%; (second compound 10 µM, first compound 0.03 µM) 52.5%; (second compound 10 µM, first compound 0.0949 µM) 32.8%; (second compound 10 µM, first compound 0.3 µM) 35.1%.

As to `CC(C)CC(NC(=O)CNC(=O)c1cc(Cl)ccc1Cl)B1OC(=O)CC(CC(=O)O)(C(=O)O)O1` (stereo not given), the viability, T/C by setting is: (compound 0.000316 µM) 90.6% and 106%; (compound 0.001 µM) 89.8% and 95.7%; (compound 0.00316 µM) 102% and 78.5%; (compound 0.01 µM) 9.9% and 4.05%; (compound 0.0316 µM) 7.32% and 0.21%; (compound 0.1 µM) 5.06% and 0.23%. Also, under “curve of compound”, the concentration for half-maximal inhibition (IC50) was 0.00578 µM and 0.00492 µM.

As for `COc1cc(Nc2ncc3c(n2)-c2ccc(Cl)cc2C(c2c(F)cccc2OC)=NC3)ccc1C(=O)O`, the viability, T/C by setting is: (compound 0.00316 µM) 43.2%; (compound 0.01 µM) 61%; (compound 0.0316 µM) 55.2%; (compound 0.1 µM) 63.2%; (compound 0.316 µM) 63.9%; (compound 1 µM) 84.3%. Under “curve of compound”, the half-inhibitory concentration (IC50) was less than 0.00316 µM.

For `Cn1ncnc1C1c2n[nH]c(=O)c3cc(F)cc(c23)NC1c1ccc(F)cc1` (stereo not given) + NC1CC1c1ccc(-c2cccc(O)c2)cc1, the IC50 under setting [1] was more than 0.1 µM; the IC50 under setting [2] is more than 0.1 µM; the IC50 under setting [3] is more than 0.1 µM; the IC50 under setting [4] was more than 0.1 µM; the IC50 under setting [5] was more than 0.1 µM. Moreover, the viability, T/C (second compound 0.1 µM, first compound 0.000316 µM) was 106%; the viability, T/C (second compound 0.1 µM, first compound 0.001 µM) is 105%; the viability, T/C (second compound 0.1 µM, first compound 0.00316 µM) was 105%; the viability, T/C (second compound 0.1 µM, first compound 0.01 µM) was 91.2%; the viability, T/C (second compound 0.1 µM, first compound 0.0316 µM) is 95.4%; the viability, T/C (second compound 0.1 µM, first compound 0.1 µM) was 84.4%. Further, the viability, T/C (second compound 0.316 µM, first compound 0.000316 µM) was 89.1%; the viability, T/C (second compound 0.316 µM, first compound 0.001 µM) was 108%; the viability, T/C (second compound 0.316 µM, first compound 0.00316 µM) was 128%; the viability, T/C (second compound 0.316 µM, first compound 0.01 µM) is 98.1%; the viability, T/C (second compound 0.316 µM, first compound 0.0316 µM) is 102%; the viability, T/C (second compound 0.316 µM, first compound 0.1 µM) was 89.3%. Besides, the viability, T/C reads like this: (second compound 1 µM, first compound 0.000316 µM) 85.7%; (second compound 1 µM, first compound 0.001 µM) 83.1%; (second compound 1 µM, first compound 0.00316 µM) 87.5%; (second compound 1 µM, first compound 0.01 µM) 74.2%; (second compound 1 µM, first compound 0.0316 µM) 89.5%; (second compound 1 µM, first compound 0.1 µM) 88.5%. Also, the viability, T/C runs as follows: (second compound 3.16 µM, first compound 0.000316 µM) 89.9%; (second compound 3.16 µM, first compound 0.001 µM) 96%; (second compound 3.16 µM, first compound 0.00316 µM) 90.2%; (second compound 3.16 µM, first compound 0.01 µM) 76.5%; (second compound 3.16 µM, first compound 0.0316 µM) 76.7%; (second compound 3.16 µM, first compound 0.1 µM) 78.5%. The viability, T/C is, setting by setting: (second compound 10 µM, first compound 0.000316 µM) 74.7%; (second compound 10 µM, first compound 0.001 µM) 80.6%; (second compound 10 µM, first compound 0.00316 µM) 69.7%; (second compound 10 µM, first compound 0.01 µM) 70.3%; (second compound 10 µM, first compound 0.0316 µM) 58.7%; (second compound 10 µM, first compound 0.1 µM) 58.8%.

As to `NC1CC1c1ccc(-c2cccc(O)c2)cc1` (stereo not given), the viability, T/C (compound 0.1 µM) is 91.3% and 107%. Moreover, the IC50 (compound alone, run of 02/01/2022) was more than 10 µM.

On to `O=C(c1cc(Cc2n[nH]c(=O)c3ccccc23)ccc1F)N1CCN(C(=O)C2CC2)CC1`, for which the viability, T/C runs as follows: (compound 0.0316 µM) 91.1% and 97.1%; (compound 0.1 µM) 92.6% and 76.9%; (compound 0.316 µM) 113% and 88.8%; (compound 1 µM) 97.3% and 90.8%; (compound 3.16 µM) 76.1% and 75.5%; (compound 10 µM) 80.3% and 84.2%. For the same molecule, where the note is “curve of compound”, the IC50 was more than 10 µM.

`CC1COCCN1c1cc(-c2ccnn2C)c2ccnc(-c3ccn[nH]3)c2n1` (stereo not given): the viability, T/C (compound 0.00316 µM) was 91.4% and 59.2%; the viability, T/C (compound 0.01 µM) is 93.3% and 48.8%; the viability, T/C (compound 0.0316 µM) is 61.6% and 40.6%; the viability, T/C (compound 0.1 µM) is 34.6% and 38.1%; the viability, T/C (compound 0.316 µM) was 16.5% and 47.6%; the viability, T/C (compound 1 µM) is 31.2% and 97.3%.

On to `NC1CCC(NC2CC2c2ccccc2)CC1` (stereo not given), for which the concentration for half-maximal inhibition (IC50) (compound alone, run of 01/24/2022) is more than 10 µM.
